Results as given in patent US11076595B2, “1-(n,n-disubstituted carbamoyl) 4-(substituted sulfonyl)triazolin-5-one derivative, 4-(n,n-disubstituted carbamoyl) 1-(substituted sulfonyl)triazolin-5-one derivative, and herbicide containing said derivative as active ingredient” (HOKKO CHEMICAL INDUSTRY CO., LTD., priority 2017, dated 2021).

Tests used:
Assay type in all cases: in vivo
Echinochloa crus-galli [1] = test: Test Example 1: herbicidal effect test by soil treatment in paddy field; conditions: 120 g/10a, paddy soil treatment just after sowing, 14 days after treatment
Text: (§1) A Wagner pot having an area of 1/10000 are was filled with paddy field soil and after adding water, a chemical fertilizer (N:P:K=17:17:17) was mixed, followed by puddling. Thereafter, 30 grains of each of Echinochloa crus-galli, broad-leaved weed (Lindernia pyxidaria and Monochoria vaginalis) and Scirpus juncoides seeds were sown to a depth of 0 to 1 cm. Immediately after the sowing, the pot was flooded, and the depth of water was kept at about 3 cm. The pot was subsequently managed in a glass greenhouse. Just after that, an emulsifiable concentrate prepared according to Formulation Example 5 by using the compound shown in Table 5 below was diluted with water, and a predetermined amount of the water-diluted formulation was added dropwise. The application rate of the active ingredient, by conversion, corresponded to 120 g per 10 are.
(§2) This test was performed with two replications per one formulation concentration plot, and 14 days after the formulation treatments, the weed suppression rate (%) was determined according to the following equation (Math. 1). Weed suppression rate (%)=(1−an average dry weight (g) of plants in treated plots/an average dry weight (g) of plants in untreated plots)×100 [Math. 1]

Lindernia pyxidaria [2] = test: as above; conditions: 120 g/10a, paddy soil treatment just after sowing, 14 days after treatment
Text: as §1, §2

Monochoria vaginalis [3] = test: as above; conditions: 120 g/10a, paddy soil treatment just after sowing, 14 days after treatment
Text: as §1, §2

Scirpus juncoides [4] = test: as above; conditions: 120 g/10a, paddy soil treatment just after sowing, 14 days after treatment
Text: as §1, §2

Echinochloa crus-galli [5] = test: Test Example 2: herbicidal effect test by treatment during growing period in paddy field; conditions: treatment 7 days after sowing, 120 g/10a, evaluated 14 days after treatment
Description: as §2
as §1, with “greenhouse. Seven days” for “greenhouse. Just”, “after sowing,” for “after that,”, “Table 6” for “Table 5”, “are. The test was performed with two replications per one formulation concentration plot, and 14 days after the formulation treatments, the weed suppression rate (%) was determined according to the equation (Math. 1).” for “are.”

Lindernia pyxidaria [6] = test: as above; conditions: treatment 7 days after sowing, 120 g/10a, evaluated 14 days after treatment
Description: as §2
as §1, with “greenhouse. Seven days” for “greenhouse. Just”, “after sowing,” for “after that,”, “Table 6” for “Table 5”, “are. The test was performed with two replications per one formulation concentration plot, and 14 days after the formulation treatments, the weed suppression rate (%) was determined according to the equation (Math. 1).” for “are.”

Monochoria vaginalis [7] = test: as above; conditions: treatment 7 days after sowing, 120 g/10a, evaluated 14 days after treatment
Description: as §2
as §1, with “greenhouse. Seven days” for “greenhouse. Just”, “after sowing,” for “after that,”, “Table 6” for “Table 5”, “are. The test was performed with two replications per one formulation concentration plot, and 14 days after the formulation treatments, the weed suppression rate (%) was determined according to the equation (Math. 1).” for “are.”

Scirpus juncoides [8] = test: as above; conditions: treatment 7 days after sowing, 120 g/10a, evaluated 14 days after treatment
Description: as §2
as §1, with “greenhouse. Seven days” for “greenhouse. Just”, “after sowing,” for “after that,”, “Table 6” for “Table 5”, “are. The test was performed with two replications per one formulation concentration plot, and 14 days after the formulation treatments, the weed suppression rate (%) was determined according to the equation (Math. 1).” for “are.”

Amaranthus viridis = test: Test Example 4: herbicidal effect test by foliage treatment in upland field; conditions: upland field foliage treatment 7 days after sowing; 120 g/10a; evaluated 14 days after treatment
Description: as §2
(§3) A pot having a size of 36 cm^2 was filled with field soil (alluvial soil) and after uniformly mixing the soil of the surface layer of 1 cm with 20 grains of each weed seed of crabgrass, Echinochloa crus-galli, Chenopodium album and Amaranthus viridis, the surface layer was pressed lightly. Seven days after the sowing, an emulsifiable concentrate prepared according to Formulation Example 5 by using the compound shown in Table 8 below was diluted with water, and the water-diluted formulation was sprayed on the soil surface at a ratio of 100 liter per 10 are. The application rate of the active ingredient, by conversion, corresponded to 120 g per 10 are. Fourteen days after the formulation treatment, the herbicidal effect was evaluated by the same criteria as in Test Example 1.

Chenopodium album = test: as above; conditions: upland field foliage treatment 7 days after sowing; 120 g/10a; evaluated 14 days after treatment
Description: as §2, §3

Echinochloa crus-galli [9] = test: as above; conditions: upland field foliage treatment 7 days after sowing; 120 g/10a; evaluated 14 days after treatment
Description: as §2, §3

crabgrass = test: as above; conditions: upland field foliage treatment 7 days after sowing; 120 g/10a; evaluated 14 days after treatment
Description: as §2, §3

In the case of Cc1cc(N(C(=O)n2ncn(S(=O)(=O)C(C)C)c2=O)C(C)C)no1 [Compound 1-99], the “weed suppression rate, Echinochloa crus-galli” value (Echinochloa crus-galli [1]) is reported as 60%, the “weed suppression rate, Lindemia pyxidaria” value (Lindernia pyxidaria [2]) is reported as 80% and the “weed suppression rate, Monochoria vaginalis” value (Monochoria vaginalis [3]) is reported as 90%. For the same molecule, the “weed suppression rate, Scirpus juncoides” value (Scirpus juncoides [4]) was 50%, the “weed suppression rate, Echinochloa crus-galli” value (Echinochloa crus-galli [5]) was 90% and the “weed suppression rate, Lindemia pyxidaria” value (Lindernia pyxidaria [6]) was 80%. For the same molecule, the “weed suppression rate, Monochoria vaginalis” value (Monochoria vaginalis [7]) was 80%, the “weed suppression rate, Scirpus juncoides” value (Scirpus juncoides [8]) was 90% and the “herbicidal effect (weed suppression rate), Amaranthus viridis” value (“herbicidal effect … Amaranthus viridis” for short) (Amaranthus viridis) was 90%. For the same molecule, the “herbicidal effect (weed suppression rate), Chenopodium album” value (“herbicidal effect … Chenopodium album” for short) (Chenopodium album) was 80%, the “herbicidal effect (weed suppression rate), Echinochloa crus-galli” value (“herbicidal effect … Echinochloa crus-galli” below) (Echinochloa crus-galli [9]) was 80% and the “herbicidal effect (weed suppression rate), Crabgrass” value (“herbicidal effect … Crabgrass” below) (crabgrass) was 90%.

With CC(C)N(C(=O)n1ncn(S(=O)(=O)C2CC2)c1=O)c1cccc(F)c1 [Compound 1-170] the “weed suppression rate, Echinochloa crus-galli” value (Echinochloa crus-galli [1]) was 90%, the “weed suppression rate, Lindemia pyxidaria” value (Lindernia pyxidaria [2]) was 100% and the “weed suppression rate, Monochoria vaginalis” value (Monochoria vaginalis [3]) was 90%. For the same molecule, the “weed suppression rate, Scirpus juncoides” value (Scirpus juncoides [4]) was 90%, the “weed suppression rate, Echinochloa crus-galli” value (Echinochloa crus-galli [5]) was 100% and the “weed suppression rate, Lindemia pyxidaria” value (Lindernia pyxidaria [6]) was 90%. The “weed suppression rate, Monochoria vaginalis” value (Monochoria vaginalis [7]) was 90%, the “weed suppression rate, Scirpus juncoides” value (Scirpus juncoides [8]) was 90% and the “herbicidal effect … Amaranthus viridis” value (Amaranthus viridis) was 90%. The “herbicidal effect … Chenopodium album” value (Chenopodium album) was 80%, the “herbicidal effect … Echinochloa crus-galli” value (Echinochloa crus-galli [9]) was 80% and the “herbicidal effect … Crabgrass” value (crabgrass) was 90%.

CC(C)N(C(=O)n1ncn(S(=O)(=O)C2CC2)c1=O)c1c(F)cc(F)cc1F [Compound 1-204] was tested, and the “weed suppression rate, Echinochloa crus-galli” value (Echinochloa crus-galli [1]) was 100%, the “weed suppression rate, Lindemia pyxidaria” value (Lindernia pyxidaria [2]) was 100% and the “weed suppression rate, Monochoria vaginalis” value (Monochoria vaginalis [3]) was 80%. The “weed suppression rate, Scirpus juncoides” value (Scirpus juncoides [4]) was 100%, the “weed suppression rate, Echinochloa crus-galli” value (Echinochloa crus-galli [5]) was 100% and the “weed suppression rate, Lindemia pyxidaria” value (Lindernia pyxidaria [6]) was 80%. For the same molecule, the “weed suppression rate, Monochoria vaginalis” value (Monochoria vaginalis [7]) was 100%, the “weed suppression rate, Scirpus juncoides” value (Scirpus juncoides [8]) was 100% and the “herbicidal effect … Amaranthus viridis” value (Amaranthus viridis) was 80%. For the same molecule, the “herbicidal effect … Chenopodium album” value (Chenopodium album) was 60%, the “herbicidal effect … Echinochloa crus-galli” value (Echinochloa crus-galli [9]) was 100% and the “herbicidal effect … Crabgrass” value (crabgrass) was 100%.

For CC(C)N(C(=O)n1ncn(S(=O)(=O)C2CC2)c1=O)c1c(F)c(F)cc(F)c1F [Compound 1-206], the “weed suppression rate, Echinochloa crus-galli” value (Echinochloa crus-galli [1]) was 100%, the “weed suppression rate, Lindemia pyxidaria” value (Lindernia pyxidaria [2]) was 100% and the “weed suppression rate, Monochoria vaginalis” value (Monochoria vaginalis [3]) was 90%. For the same molecule, the “weed suppression rate, Scirpus juncoides” value (Scirpus juncoides [4]) was 100%, the “weed suppression rate, Echinochloa crus-galli” value (Echinochloa crus-galli [5]) was 100% and the “weed suppression rate, Lindemia pyxidaria” value (Lindernia pyxidaria [6]) was 80%. The “weed suppression rate, Monochoria vaginalis” value (Monochoria vaginalis [7]) was 90%, the “weed suppression rate, Scirpus juncoides” value (Scirpus juncoides [8]) was 100% and the “herbicidal effect … Amaranthus viridis” value (Amaranthus viridis) was 80%. The “herbicidal effect … Chenopodium album” value (Chenopodium album) was 60%, the “herbicidal effect … Echinochloa crus-galli” value (Echinochloa crus-galli [9]) was 100% and the “herbicidal effect … Crabgrass” value (crabgrass) was 100%.

With CC(C)N(C(=O)n1ncn(S(=O)(=O)C2CC2)c1=O)c1ccc(C(F)(F)F)cc1F [Compound 1-226] the “weed suppression rate, Echinochloa crus-galli” value (Echinochloa crus-galli [1]) was 100%, the “weed suppression rate, Lindemia pyxidaria” value (Lindernia pyxidaria [2]) was 100% and the “weed suppression rate, Monochoria vaginalis” value (Monochoria vaginalis [3]) was 100%. The “weed suppression rate, Scirpus juncoides” value (Scirpus juncoides [4]) was 100%, the “weed suppression rate, Echinochloa crus-galli” value (Echinochloa crus-galli [5]) was 100% and the “weed suppression rate, Lindemia pyxidaria” value (Lindernia pyxidaria [6]) was 80%. For the same molecule, the “weed suppression rate, Monochoria vaginalis” value (Monochoria vaginalis [7]) was 100%, the “weed suppression rate, Scirpus juncoides” value (Scirpus juncoides [8]) was 90% and the “herbicidal effect … Amaranthus viridis” value (Amaranthus viridis) was 90%. The “herbicidal effect … Chenopodium album” value (Chenopodium album) was 80%, the “herbicidal effect … Echinochloa crus-galli” value (Echinochloa crus-galli [9]) was 100% and the “herbicidal effect … Crabgrass” value (crabgrass) was 100%.

For CC(C)N(C(=O)n1ncn(S(=O)(=O)C2CCCCC2)c1=O)c1ccc(F)c(F)c1F [Compound 1-309], the “weed suppression rate, Echinochloa crus-galli” value (Echinochloa crus-galli [1]) was 100%, the “weed suppression rate, Lindemia pyxidaria” value (Lindernia pyxidaria [2]) was 100% and the “weed suppression rate, Monochoria vaginalis” value (Monochoria vaginalis [3]) was 100%. For the same molecule, the “weed suppression rate, Scirpus juncoides” value (Scirpus juncoides [4]) was 100%, the “weed suppression rate, Echinochloa crus-galli” value (Echinochloa crus-galli [5]) was 100% and the “weed suppression rate, Lindemia pyxidaria” value (Lindernia pyxidaria [6]) was 80%. For the same molecule, the “weed suppression rate, Monochoria vaginalis” value (Monochoria vaginalis [7]) was 100%, the “weed suppression rate, Scirpus juncoides” value (Scirpus juncoides [8]) was 100% and the “herbicidal effect … Amaranthus viridis” value (Amaranthus viridis) was 0%. For the same molecule, the “herbicidal effect … Chenopodium album” value (Chenopodium album) was 80%, the “herbicidal effect … Echinochloa crus-galli” value (Echinochloa crus-galli [9]) was 100% and the “herbicidal effect … Crabgrass” value (crabgrass) was 100%.

With CC(C)N(C(=O)n1ncn(S(=O)(=O)C2CCCCC2)c1=O)c1c(F)c(F)cc(F)c1F [Compound 1-311] the “weed suppression rate, Echinochloa crus-galli” value (Echinochloa crus-galli [1]) was 100%, the “weed suppression rate, Lindemia pyxidaria” value (Lindernia pyxidaria [2]) was 100% and the “weed suppression rate, Monochoria vaginalis” value (Monochoria vaginalis [3]) was 100%. The “weed suppression rate, Scirpus juncoides” value (Scirpus juncoides [4]) was 100%, the “weed suppression rate, Echinochloa crus-galli” value (Echinochloa crus-galli [5]) was 100% and the “weed suppression rate, Lindemia pyxidaria” value (Lindernia pyxidaria [6]) was 80%. For the same molecule, the “weed suppression rate, Monochoria vaginalis” value (Monochoria vaginalis [7]) was 100%, the “weed suppression rate, Scirpus juncoides” value (Scirpus juncoides [8]) was 90% and the “herbicidal effect … Amaranthus viridis” value (Amaranthus viridis) was 0%. For the same molecule, the “herbicidal effect … Chenopodium album” value (Chenopodium album) was 60%, the “herbicidal effect … Echinochloa crus-galli” value (Echinochloa crus-galli [9]) was 100% and the “herbicidal effect … Crabgrass” value (crabgrass) was 100%.
